pKd: −log10 of the molar value. One block for each compound: values may come before it.
Legend:
L-ARQ46 [1] = target: T1, L-ARQ46 (Homo sapiens, UniProt P10275); assay: SPR binding to immobilized L-ARQ46; conditions: L-ARQ46 immobilized on CM5 chip via amine coupling (1400 RU); steady state affinity fit; TBS pH 7.5, 0.05% Tween, 25 °C; multi-cycle, up to 20 µM; data not shown
T1 construct: L-ARQ46; purchased peptides & elephants GmbH (Henningsdorf, Germany); host or cells: chemical synthesis
Procedure: Binding studies were performed with surface plasmon resonance (SPR) in a Biacore T200 device (Biacore, GE Healthcare, Uppsala, Sweden). The L-ARQ46 was immobilized on a CM5 Chip via amine coupling (1400 RU). The selected D-enantiomeric peptide compound QF2D-2 was dissolved in the running buffer (TBS pH 7.5 with 0.05% Tween) and served as the analyte in multi-cycle experiments, with the highest peptide concentration being 20 µM. Experiments were performed at 25 °C with a flow rate of 45 µL/min. After a contact time of 110 s and a dissociation time of 400 s, the surface was regenerated with low pH (Glycin-HCl, pH 2.2) for 30 s with a flow rate of 30 µL/min. The data were evaluated via affinity fit of the steady state using the biacore evaluation software.

L-ARQ46 [2] = target: T1, L-ARQ46; assay: ThT aggregation assay of ARQ46 seeded with soluble aggregate fragments; assay type: biochemical; conditions: 15 µM ARQ46
Procedure: (§1) Following the disaggregation protocol that Chen et al. published, the polyglutamine proteins were incubated for three days in 1:1 TFA/Hexafluoroisopropanol (HFIP) or overnight in 100% trifluoroacetic acid (TFA). Afterwards the solvent was evaporated with N2 gas treatment and the polyglutamine protein redissolved in the experiment buffer.
(§2) Thioflavin T (ThT) assays were performed to monitor the time-dependent formation of amyloidogenic aggregates. The assays were performed at 37 °C in TBS pH 7.5 (15 µM ThT) with 300 rpm double orbital shaking. All buffers were sterile filtrated beforehand. Polyglutamine proteins were disaggregated as described before. The peptides were pre-diluted in TBS pH 7.5. The disaggregated polyglutamine protein in buffer was mixed with 15 µM ThT and the pre-diluted peptides in a 96-well half-area flat-bottom microplate (Corning, New York, NY, USA). During the experiment all wells contained 100 µL ThT solution. Sealing the plate with foil (Thermo Fisher Scientific, Waltham, MA, USA) helped to prevent evaporation. The progression of fluorescence intensity was tracked by a microplate reader (BMG Labtech, Ortenberg, Germany).
For seeded experiments, the slope of the curve was considered instead of the lag-time because seeding eliminated the lag-time. The slope was determined by plotting the first values and fitting with a linear fit. The considered period (2 to 3.5 h) was similar for the curves compared with.
The disaggregated ARQ46 was diluted to 300 µM and incubated at 37 °C, 400 rpm. After 24 h large, white aggregates were visible in the tube. The sample was sonicated (Sonopuls, Bandelin electronic GmbH & Co. KG, Berlin, Germany) four times for 15 s with an amplitude of 60%. Between the sonification steps the sample was cooled on ice. Post sonification the sample was turbid. It was centrifuged at 100,000 g for 1 h at 4 °C to remove insoluble aggregates from the solution. The clear supernatant was used for seeding with soluble aggregate fragments.
Figure 5 QF2D-1, QF2D-2 and QF2D-6 inhibit the aggregation of ARQ46 in presence of soluble aggregate fragment seeds; ARQ46 was aggregated, and the solution was subject to spinning at 100,000 g in an ultracentrifuge. The supernatant was preincubated with 15 µM and 7.5 µM of one of the selected compounds in TBS at 37 °C. After 23 h, 15 µM monomeric ARQ46 were added, and the fluorescence intensity was measured every 15 min at λex = 448 nm and λem = 482 nm with agitation at 300 rpm between measurements. P8 served as a control compound that was not selected on polyglutamine, whereas QBP1 is claimed to bind polyglutamine tracts and inhibit polyglutamine-driven aggregation. (A) Fluorescence intensity of P8, QBP1, QF2D-1, QF2D-2 and QF2D-6 in equimolar and sub stoichiometric ratio at 90 h. (B) The data points acquired between 24 h and 26 h- shortly after monomer addition- were fitted with a linear fit. The slope was compared. (C) Measurement example of the described ThT-assay with ARQ46 (black), P8 (light grey), QBP1 (grey) and QF2D-2 (dark grey). The mean fluorescence intensity is shown for each time point. The experiment was performed in two-fold determination.

L-ARQ46 [3] = target: T1, L-ARQ46; assay: ThT aggregation assay, monomeric ARQ46, unseeded; assay type: biochemical
Procedure: as §1, §2
The lag-time was estimated as follows: the average variation of the curve was determined with the last ten values of the steady state. […]
The progression of fluorescence intensity was measured every 30 min at λex = 410 nm and λem = 482 nm with 30 s agitation at 300 rpm before every measurement. (A) Fluorescence intensity measured at 90 h of the aggregation assay starting with 15 µM monomeric ARQ46 without peptide and with 15 µM QF2D-1, QF2D-2, QF2D-3, QF2D-4, QF2D-5, QF2D-6, QF2D-7, QF2D-8 or QF2D-9. […] The mean fluorescence intensity is shown for each time point. […]
Figure 8 Effect of different QF2D-2 concentrations on the aggregation of ARQ46; ThT assay with L-ARQ46 was performed at 37 °C in TBS pH 7.5. The progression of fluorescence intensity was measured every 30 min at λex = 410 nm and λem = 482 nm with 30 sec agitation at 300 rpm before every measurement. […] The mean fluorescence intensity is shown for each time point. […]

[4] = Spontaneous aggregation of polyglutamine peptides (ThT); assay type: physicochemical; conditions: no inhibitor, TBS pH 7.5, 37 °C
Procedure: as §1, §2
(§3) Figure 1 Disaggregation of ARQ46; Examination of ARQ46 post disaggregation. […] (B) ThT-Measurement of 15 µM ARQ46, disaggregated with 1:1 TFA/HFIP, in TBS pH 7.5 measured at 37 °C.

[5] = CD secondary structure of polyglutamine peptides; assay type: physicochemical
Procedure: as §1
After disaggregation, polyglutamine proteins were dissolved in TBS pH 7.5 and measured in a quartz crystal cuvette with 1 mm light path (Hellma Analytics, Müllheim, Germany) in a CD spectrometer (J-1100, Jasco Deutschland GmbH, Pfungstadt, Germany) with 4 acquisitions. The High tension voltage (HT) was monitored throughout the experiment. Data for which the HT exceeded 600 V were excluded. Buffer measurements served as references. Analogous, samples containing 50 µM ARQ46 and 50 µM QF2D-1 or QF2D-2 were measured and referenced with the measurement of 50 µM QF2D-1 or QF2D-2 alone. […] The CD spectra of the samples were monitored after 24 h, 48 h and 168 h of aggregation.
as §3
Figure 2 CD-spectrum of D-ARQ23 disaggregated with 100% TFA; Prior to the phage display selection D-ARQ23 was disaggregated with TFA to ensure selection on monomeric target. CD-spectrum was recorded in 10 mM Tris pH 8.

[6] = test system: polyglutamine disease mouse model; set-up: method as in PMID 18603372, PMID 23226463, PMID 23504628; conditions: cited from earlier work
polyglutamine proteins = conditions: cited from earlier work
Excerpt: Patients suffering from polyglutamine diseases present with aggregates in their neurons before symptom onset and therefore probably also before treatments start. Thus, a promising drug candidate should inhibit the aggregation in presence of pre-formed aggregates. […] The effects of the compounds were compared with two controls. The first, P8, has been selected on SOD1 and should not bind to polyg ...

Drosophila = test system: Drosophila; set-up: method as in PMID 12761040; conditions: cited from earlier work
[7] = soluble aggregate seeds, slope 24 to 26 h, peptide concentration not stated (15 or 7.5 µM)

T1 sequence (P10275 with tags, fused parts or gaps): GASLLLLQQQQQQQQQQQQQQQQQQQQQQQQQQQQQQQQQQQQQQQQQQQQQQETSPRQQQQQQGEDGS

pKd (L-ARQ46 [1]): 4.96
Reduction of slope compared to QBP1 (L-ARQ46 [2]; [7]): 86%
Reduction of slope compared with P8 (L-ARQ46 [2]; [7]): 96%
Fluorescence intensity of the steady state, % of that measured for ARQ46 (L-ARQ46 [3]; at 90 h, equimolar, 15 µM ARQ46 and 15 µM peptide, TBS pH 7.5, 37 °C, λex 410 nm, λem 482 nm, three-fold determination): approx. 70%
Compound: C[C@H](O)[C@@H](NC(=O)[C@@H](CO)NC(=O)[C@@H](Cc1c[nH]c2ccccc12)NC(=O)[C@@H](CCC(N)=O)NC(=O)[C@@H](CO)NC(=O)[C@@H](CCC(N)=O)NC(=O)[C@H](N)CO)C(=O)N1CCC[C@@H]1C(=O)N[C@H](CCC(N)=O)C(=O)NCC(=O)N[C@H](CCCCN)C(=O)N[C@H](Cc1c[nH]c2ccccc12)C(=O)N[C@H](CO)C(=O)N[C@H](Cc1c[nH]cn1)C(=O)N[C@H](Cc1c[nH]c2ccccc12)C(=O)N1CCC[C@@H]1C(=O)N[C@H](CCCNC(=N)N)C(=O)N[C@H](CCCNC(=N)N)C(=O)N[C@H](CCCNC(=N)N)C(=O)O [QF2D-2]

Compound: KKQQQQQQQQQQQQQQQQQQQQQQQ QQQQQQQQQQQQQQQQQQQQQQQKK [L-K2Q46K2, universal polyglutamine peptide]
Spontaneous aggregation [4]: spontaneously formed amyloid fibrils after few hours lag time

Compound: L-ARQ46: androgen receptor fragment with 46 consecutive glutamine residues
Spontaneous aggregation [4]: spontaneously formed amyloid fibrils after few hours lag time
Beta-sheet structure after incubation ([5]; TBS pH 7.5, 37 °C, 400 rpm, 24 h): 100%
Secondary structure after disaggregation ([5]; freshly disaggregated (100% TFA)): a mixture of random coil and alpha-helical structure

Effect on aggregation of monomeric ARQ46 (repeat with controls) (L-ARQ46 [3]; unseeded, ratio not stated, data not shown): drastically inhibited the aggregation
Compound: SNWKWWPGIFD [QBP1]
Neurological effect in mouse model [6]: did not yield beneficial neurological effects
Inhibition of polyglutamine aggregation (polyglutamine proteins): claimed to inhibit the aggregation of polyglutamine proteins
Effect in presence of soluble aggregate fragments relative to selected peptides (L-ARQ46 [2]; soluble aggregate seeds): considerably smaller than that of the selected peptides
Therapeutic effect in Drosophila (Drosophila): had a therapeutic effect in Drosophila

Slope of ThT curve after monomer addition (24 to 26 h), in words (L-ARQ46 [2]; 15 or 7.5 µM peptide preincubated 23 h with soluble seeds, TBS, 37 °C, two-fold determination): the steepest
Lag-phase in presence of soluble aggregates (L-ARQ46 [2]; soluble aggregate fragment seeds, TBS, 37 °C, two-fold determination): no lag-phase observable
Effect on aggregation of monomeric ARQ46, equimolar (repeat with controls) (L-ARQ46 [3]; unseeded, equimolar, data not shown): slight inhibiting effect
Compound: YDTPKHKDKTWPMM [P8]
